# Patent publication US20240368135A1 (VERTEX PHARMACEUTICALS INCORPORATED, priority 2021, published 2024)
# pIC50: −log10 of the molar value. Where two headings read alike, the source gives them in different places.
# Target: human NaV 1.8 (Homo sapiens, UniProt Q9Y5Y9)
# Experiment: E-VIPR assay detecting and measuring NaV inhibition properties
# Assay type: cell-based
# Conditions: HEK cells expressing truncated human NaV 1.8
# Procedure, shortened: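 HEK cells expressing truncated, fully active human NaV1.8, with KIR2.1 BacMam co-transduction, were loaded with CC2-DMPE/DiSBAC6(3) voltage-sensing dyes for 20 min at room temperature. Compounds were tested in 11-point 3-fold dilutions (300 nM top final), optionally with 25% human serum, under electrical stimulation with FRET read-out.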
# [1] = no human serum, read-out: IC50 in the E-VIPR Assay
# [2] = in the presence of human serum (compound numbers followed by *), read-out: IC50 in the E-VIPR Assay, performed in the presence of human serum
# Chain of human NaV 1.8 (Q9Y5Y9 126-399 limits assumed): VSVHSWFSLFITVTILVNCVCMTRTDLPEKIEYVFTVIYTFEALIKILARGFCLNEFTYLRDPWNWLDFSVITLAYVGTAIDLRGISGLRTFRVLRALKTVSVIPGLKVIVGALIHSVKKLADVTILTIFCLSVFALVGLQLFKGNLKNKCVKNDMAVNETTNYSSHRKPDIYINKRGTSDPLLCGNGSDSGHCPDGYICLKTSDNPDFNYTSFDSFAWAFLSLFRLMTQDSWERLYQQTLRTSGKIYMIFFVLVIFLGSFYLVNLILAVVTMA
# Chain of human NaV 1.8 (Q9Y5Y9 660-890 limits assumed): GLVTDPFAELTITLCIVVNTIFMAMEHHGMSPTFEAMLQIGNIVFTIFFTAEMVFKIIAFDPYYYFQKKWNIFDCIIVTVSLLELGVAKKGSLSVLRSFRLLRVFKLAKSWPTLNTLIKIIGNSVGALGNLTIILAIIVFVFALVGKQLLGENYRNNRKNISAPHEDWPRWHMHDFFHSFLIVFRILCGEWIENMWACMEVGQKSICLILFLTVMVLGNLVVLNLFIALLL
# Chain of human NaV 1.8 (Q9Y5Y9 1148-1722 limits assumed): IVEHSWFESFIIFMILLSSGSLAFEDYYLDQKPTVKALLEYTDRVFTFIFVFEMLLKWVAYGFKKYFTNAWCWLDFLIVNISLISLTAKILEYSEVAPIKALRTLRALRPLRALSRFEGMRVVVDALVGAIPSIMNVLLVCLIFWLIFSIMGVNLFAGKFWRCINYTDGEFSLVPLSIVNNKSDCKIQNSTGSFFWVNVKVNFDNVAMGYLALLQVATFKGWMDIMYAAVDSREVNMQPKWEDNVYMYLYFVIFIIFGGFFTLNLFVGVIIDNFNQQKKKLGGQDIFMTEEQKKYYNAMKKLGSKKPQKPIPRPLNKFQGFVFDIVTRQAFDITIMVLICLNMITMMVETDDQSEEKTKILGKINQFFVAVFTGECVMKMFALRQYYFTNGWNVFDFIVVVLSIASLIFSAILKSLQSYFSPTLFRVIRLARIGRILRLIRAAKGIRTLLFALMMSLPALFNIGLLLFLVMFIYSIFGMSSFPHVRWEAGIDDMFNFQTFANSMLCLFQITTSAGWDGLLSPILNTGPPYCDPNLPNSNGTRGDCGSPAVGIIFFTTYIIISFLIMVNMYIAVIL
SMILES,pIC50 [1],pIC50 [2]
"COc1c([C@H]2[C@H](C(=O)Nc3ccc4ncn(C)c4c3)O[C@@](C)(C(F)(F)F)[C@H]2C)ccc(F)c1F [Compound 185, (2R,3S,4S,5R)-3-(3,4-difluoro-2-methoxyphenyl)-4,5-dimethyl-N-(1-methyl-1H-benzo[d]imidazol-6-yl)-5-(trifluoromethyl)tetrahydrofuran-2-carboxamide]",,≤ 6.00
"COc1c([C@H]2[C@H](C(=O)Nc3ccnc(OC(F)F)c3)O[C@@](C)(C(F)(F)F)[C@H]2C)ccc(F)c1F [Compound 189, (2R,3S,4S,5R)-3-(3,4-difluoro-2-methoxyphenyl)-N-(2-(difluoromethoxy)pyridin-4-yl)-4,5-dimethyl-5-(trifluoromethyl)tetrahydrofuran-2-carboxamide]",7.00 to 8.00,
"COc1c([C@H]2[C@H](C(=O)Nc3ccc(C#N)nc3)O[C@@](C)(C(F)(F)F)[C@H]2C)ccc(F)c1F [Compound 192, (2R,3S,4S,5R)-N-(6-cyanopyridin-3-yl)-3-(3,4-difluoro-2-methoxyphenyl)-4,5-dimethyl-5-(trifluoromethyl)tetrahydrofuran-2-carboxamide]",7.00 to 8.00,
"COc1c([C@H]2[C@H](C(=O)Nc3ccc(-c4ncc[nH]4)nc3)O[C@@](C)(C(F)(F)F)[C@H]2C)ccc(F)c1F [Compound 193, (2R,3S,4S,5R)-N-(6-(1H-imidazol-2-yl)pyridin-3-yl)-3-(3,4-difluoro-2-methoxyphenyl)-4,5-dimethyl-5-(trifluoromethyl)tetrahydrofuran-2-carboxamide]",7.00 to 8.00,
"COc1c([C@H]2[C@H](C(=O)Nc3ccc(CCS(C)(=O)=O)nc3)O[C@@](C)(C(F)(F)F)[C@H]2C)ccc(F)c1F [Compound 194, (2R,3S,4S,5R)-3-(3,4-difluoro-2-methoxyphenyl)-4,5-dimethyl-N-(6-(2-(methylsuflonyl)ethyl)pyridin-3-yl)-5-(trifluoromethyl)tetrahydrofuran-2-carboxamide]",7.00 to 8.00,
"COc1c([C@H]2[C@H](C(=O)Nc3ccnc(OC4CCOCC4)c3)O[C@@](C)(C(F)(F)F)[C@H]2C)ccc(F)c1F [Compound 195, (2R,3S,4S,5R)-3-(3,4-difluoro-2-methoxyphenyl)-4,5-dimethyl-N-(2-((tetrahydro-2H-pyran-4-yl)oxy)pyridin-4-yl)-5-(trifluoromethyl)tetrahydrofuran-2-carboxamide]",7.00 to 8.00,
"COc1c(C2C(C(=O)Nc3cc[n+]([O-])c(C(O)CO)c3)OC(C)(C(F)(F)F)C2C)ccc(F)c1F (stereo not shown) [Compound 210, 3-(3,4-difluoro-2-methoxy-phenyl)-N-[2-(1,2-dihydroxyethyl)-1-oxido-pyridin-1-ium-4-yl]-4,5-dimethyl-5-(trifluoromethyl)tetrahydrofuran-2-carboxamide]",7.00 to 8.00,
"COc1c([C@H]2[C@H](C(=O)Nc3ccc4nc[nH]c4c3)O[C@@](C)(C(F)(F)F)[C@H]2C)ccc(F)c1F [Compound 212, (2R,3S,4S,5R)-N-(1H-benzo[d]imidazol-6-yl)-3-(3,4-difluoro-2-methoxyphenyl)-4,5-dimethyl-5-(trifluoromethyl)tetrahydrofuran-2-carboxamide]",,6.00 to 7.00
"COc1c([C@H]2[C@H](C(=O)Nc3ccc(C4(N)COC4)nc3)O[C@@](C)(C(F)(F)F)[C@H]2C)ccc(F)c1F [Compound 213, (2R,3S,4S,5R)-N-(6-(3-aminooxetan-3-yl)pyridin-3-y1)-3-(3,4-difluoro-2-methoxyphenyl)-4,5-dimethyl-5-(trifluoromethyl)tetrahydrofuran-2-carboxamide]",7.00 to 8.00,
"COc1c([C@H]2[C@H](C(=O)Nc3ccnc(C[C@H]4COCCN4)c3)O[C@@](C)(C(F)(F)F)[C@H]2C)ccc(F)c1F [Compound 214, (2R,3S,4S,5R)-3-(3,4-difluoro-2-methoxyphenyl)-4,5-dimethyl-N-(2-(((S)-morpholin-3-yl)methyl)pyridin-4-yl)-5-(trifluoromethyl)tetrahydrofuran-2-carboxamide]",7.00 to 8.00,
"COc1c([C@H]2[C@H](C(=O)Nc3ccc(CC4CCNCC4)nc3)O[C@@](C)(C(F)(F)F)[C@H]2C)ccc(F)c1F [Compound 215, (2R,3S,4S,5R)-3-(3,4-difluoro-2-methoxyphenyl)-4,5-dimethyl-N-(6-(piperidin-4-ylmethyl)pyridin-3-yl)-5-(trifluoromethyl)tetrahydrofuran-2-carboxamide]",7.00 to 8.00,

# Continued, values first:
pIC50 [1],pIC50 [2],SMILES
> 8.00,,"COc1c([C@H]2[C@H](C(=O)Nc3ccnc(CN(C)C)c3)O[C@@](C)(C(F)(F)F)[C@H]2C)ccc(F)c1F [Compound 183, (2R,3S,4S,5R)-3-(3,4-difluoro-2-methoxyphenyl)-N-(2-((dimethylamino)methyl)pyridin-4-yl)-4,5-dimethyl-5-(trifluoromethyl)tetrahydrofuran-2-carboxamide]"
> 8.00,,"COc1c([C@H]2[C@H](C(=O)Nc3ccnc(CN4CCCC4)c3)O[C@@](C)(C(F)(F)F)[C@H]2C)ccc(F)c1F [Compound 184, (2R,3S,4S,5R)-3-(3,4-difluoro-2-methoxyphenyl)-4,5-dimethyl-N-(2-(pyrrolidin-1-ylmethyl)pyridin-4-yl)-5-(trifluoromethyl)tetrahydrofuran-2-carboxamide]"
7.00 to 8.00,,"COc1c([C@H]2[C@H](C(=O)Nc3ccc(C#N)cn3)O[C@@](C)(C(F)(F)F)[C@H]2C)ccc(F)c1F [Compound 187, (2R,2S,4S,5R)-N-(5-cyanopyridin-2-yl)-3-(3,4-difluoro-2-methoxyphenyl)-4,5-dimethyl-5-(trifluoromethyl)tetrahydrofuran-2-carboxamide]"
> 8.00,,"COc1c([C@H]2[C@H](C(=O)Nc3ccnc(S(N)(=O)=O)c3)O[C@@](C)(C(F)(F)F)[C@H]2C)ccc(F)c1F [Compound 188, (2R,3S,4S,5R)-3-(3,4-difluoro-2-methoxyphenyl)-4,5-dimethyl-N-(2-sulfamoylpyridin-4-yl)-5-(trifluoromethyl)tetrahydrofuran-2-carboxamide]"
> 8.00,,"COc1c([C@H]2[C@H](C(=O)Nc3ncco3)O[C@@](C)(C(F)(F)F)[C@H]2C)ccc(F)c1F [Compound 196, (2R,3S,4S,5R)-3-(3,4-difluoro-2-methoxyphenyl)-4,5-dimethyl-N-(oxazol-2-yl)-5-(trifluoromethyl)tetrahydrofuran-2-carboxamide]"
> 8.00,,"COc1c([C@H]2[C@H](C(=O)Nc3cn(C[C@@H](O)CO)nc3C)O[C@@](C)(C(F)(F)F)[C@H]2C)ccc(F)c1F [Compound 201, (2R,3S,4S,5R)-3-(3,4-difluoro-2-methoxyphenyl)-N-(1-((R)-2,3-dihydroxypropyl)-3-methyl-1H-pyrazol-4-yl)-4,5-dimethyl-5-(trifluoromethyl)tetrahydrofuran-2-carboxamide]"
> 8.00,,"COc1c(C2C(C(=O)Nc3ccnc(C(O)C(C)O)c3)OC(C)(C(F)(F)F)C2C)ccc(F)c1F (stereo not shown) [Compound 208, 3-(3,4-difluoro-2-methoxy-phenyl)-N-[2-(1,2-dihydroxypropyl)-4-pyridyl]-4,5-dimethyl-5-(trifluoromethyl)tetrahydrofuran-2-carboxamide]"
> 8.00,,"COc1c([C@H]2[C@H](C(=O)Nc3cc(S(C)(=O)=O)nn3C)O[C@@](C)(C(F)(F)F)[C@H]2C)ccc(F)c1F [Compound 211, (2R,3S,4S,5R)-3-(3,4-difluoro-2-methoxyphenyl)-4,5-dimethyl-N-(1-methyl-3-(methylsulfonyl)-1H-pyrazol-5-yl)-5-(trifluoromethyl)tetrahydrofuran-2-carboxamide]"
